Source: patent US20080311126A1, “Antisense Oligonucleotides Directed to Ribonucleotide Reducatase R2 and Uses Thereof in Combination Therapies for the Treatment of Cancer” (Genesense Technologies, Inc, priority 2004, published 2008)
Oligonucleotides are written 5' to 3', each unit as a sugar letter and its base; * is a phosphorothioate linkage, no mark a phosphodiester; rarer units and linkages stand in square brackets, end groups in braces. Plain capitals give the bases only. d = 2'-deoxy (DNA)

Assays:
Assay type in all cases: cell-based, human
[1] = system: Hela S3 cells; test: Relative colony forming efficiency, lipofectin +/- oligonucleotide 4 hours; settings: Hela S3 cervix carcinoma cells; averages of 2-8 determinations
Experimental: Colony forming efficiency was determined using standard protocols. Briefly, the cells were cultured for 24 hours at 37° C. in growth medium with 10% fetal bovine serum. The cells were washed in 5 ml phosphate buffered saline, pH 7.2, once prior to lipofectin +/−oligonucleotide treatment.
The test oligonucleotides were added to cell cultures in the presence of 2.5 μg of DOTMA/DOPE (Lipofectin; Life Technologies, Inc.) for four hours. The oligonucleotide was tested at 0.2 μM unless otherwise indicated. Controls were the cultures treated with lipofectin but without the oligonucleotide. After 4 hours the medium containing the oligonucleotide was removed and washed with 5 ml of growth medium. The cells were then cultured in growth medium containing 10% fetal bovine serum for seven to ten days. Surviving cells were visualized by methylene blue staining, and colonies were scored. In some experiments cell aliquots were removed from the culture and viability was determined using the trypan blue exclusion test. Results were analyzed as percent of surviving cells compared to control cells.
AS-II-336-20 was tested for the ability to inhibit the proliferation of human tumour cells (Hela). Hela S3 cells (American Type Culture Collection, Rockville, Md., ATCC), and a Hela cell line (Hela 1 mM) previously selected for resistance to the antitumour agent, hydroxyurea, were tested (see results in Table 11). Two experiments were undertaken with Hela S3 cells. […] The same experiment was repeated with the Hela 1 mM cell line and with varying concentrations of the antisense construct AS-II-336-20 (see results in Table 11) with similar results, […] was an effective concentration for inhibiting colony formation.
To test the antisense effects of many of these sequences as phosphorthioate deoxyribonucleotides, they were examined in relative colony forming experiments conducted as described in Example 16 with a series of human tumour cell lines. The results (shown as % inhibition of colony forming ability) obtained with cancer cells derived from the bladder, breast, lung, colon, pancreas, prostate, liver and cervix, are shown in Table 13. The specific cell lines employed are as follows:
T24=bladder cell carcinoma HCT116=colon cell carcinoma A549=lung cell carcinoma MDA-MB-231=breast cell adenocarcinoma […]=pancreatic cell carcinoma PC-3=prostrate cell adenocarcinoma HepG2=hepatocellular carcinoma HeLaS3=cells isolated from a carcinoma of the cervix T-47D=breast ductal carcinoma H596=lung adenosquamous carcinoma cells Colo320=colon cell adenocarcinoma

[2] = system: A549 lung cell carcinoma; test: Relative colony forming efficiency (Example 17, Table 13); settings: averages of 2-8 determinations
In short: (§1)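 Phosphorothioate antisense oligonucleotides were delivered to tumour cell cultures with 2.5 μg DOTMA/DOPE (Lipofectin) over four hours, at 0.2 μM unless otherwise indicated. Surviving colonies were stained with methylene blue and scored. Values are % inhibition of colony formation relative to lipofectin-only controls.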

[3] = system: MDA-MB-231 breast cell adenocarcinoma; test: as above; settings: averages of 2-8 determinations
In short: as §1

[4] = system: T24 bladder cell carcinoma; test: as above; settings: averages of 2-8 determinations
In short: as §1

[5] = system: MDA PaCa-2 pancreatic cell carcinoma; test: as above; settings: MIA PaCa-2 pancreatic cell carcinoma; averages of 2-8 determinations
In short: as §1

[6] = system: HCT116 colon cell carcinoma; test: as above; settings: averages of 2-8 determinations
In short: as §1

[7] = system: HepG2 hepatocellular carcinoma; test: as above; settings: averages of 2-8 determinations
In short: as §1

[8] = system: PC-3 prostrate cell adenocarcinoma; test: as above; settings: averages of 2-8 determinations
In short: as §1

Row | Sequence | Reduced relative colony forming efficiency, Hela S3 (% inhibition of colony forming ability) [1] [%] | Reduced relative colony forming efficiency, A549 (% inhibition of colony forming ability) [2] [%] | Reduced relative colony forming efficiency, MDA-MB-231 (% inhibition of colony forming ability) [3] [%] | Reduced relative colony forming efficiency, T24 (% inhibition of colony forming ability) [4] [%] | Reduced relative colony forming efficiency, MIA PaCa-2 (% inhibition of colony forming ability) [5] [%] | Reduced relative colony forming efficiency, HCT116 (% inhibition of colony forming ability) [6] [%] | Reduced relative colony forming efficiency, HepG2 (% inhibition of colony forming ability) [7] [%] | Reduced relative colony forming efficiency, PC-3 (% inhibition of colony forming ability) [8] [%]
1 | CCTCCTCGGCGGTCCAAAAG (antisense dC*dC*dT*dC*dC*dT*dC*dG*dG*dC*dG*dG*dT*dC*dC*dA*dA*dA*dA*dG) [AS-II-494-20] | 43.62 | 33.85 | 54.78 | 54.23 | 25.31 | 50.28 | 93.37 | 30.6
2 | TTCTCTTACTCTCTCCTCCG (antisense dT*dT*dC*dT*dC*dT*dT*dA*dC*dT*dC*dT*dC*dT*dC*dC*dT*dC*dC*dG) [AS-II-1048-20] | 39.19 | 65.67 | 66.88 | 40.32 | 33.4 | 42.63 | 77.56 | 84.38
3 | TGTAAACCCTCATCTCTGCT (antisense dT*dG*dT*dA*dA*dA*dC*dC*dC*dT*dC*dA*dT*dC*dT*dC*dT*dG*dC*dT) [AS-II-981-20] | 69.43 | 74.25 | 91.48 | 86.3 | – | 66.84 | 95.03 | 85.16
4 | TATCTCTCCTCGGGTTTCAG (antisense dT*dA*dT*dC*dT*dC*dT*dC*dC*dT*dC*dG*dG*dG*dT*dT*dT*dC*dA*dG) [AS-II-549-20] | 27.8 | 30.57 | 40.13 | 45.46 | 17.01 | 47.83 | 84.04 | –
5 | CTGCTTTAGTTTTCGGCTCC (antisense dC*dT*dG*dC*dT*dT*dT*dA*dG*dT*dT*dT*dT*dC*dG*dG*dC*dT*dC*dC) [AS-II-362-20] | 45.69 | 61.81 | 85.83 | 89.63 | 34.2 | 62.81 | 95.78 | 75.78
6 | TCCTTTATCCCACAACACTC (antisense dT*dC*dC*dT*dT*dT*dA*dT*dC*dC*dC*dA*dC*dA*dA*dC*dA*dC*dT*dC) [AS-II-2067-20] | 24.88 | 64.71 | 49.68 | 49.6 | 41.08 | 47.16 | 90.36 | –
7 | TCTGCCTTCTTCTTGACACA (antisense dT*dC*dT*dG*dC*dC*dT*dT*dC*dT*dT*dC*dT*dT*dG*dA*dC*dA*dC*dA) [AS-II-798-20] | 56.42 | 70.49 | 83.92 | 84.72 | 34.65 | 64.46 | 89.46 | 83.21
8 | CGGCGGCGTGTTCTCCTTGT (antisense dC*dG*dG*dC*dG*dG*dC*dG*dT*dG*dT*dT*dC*dT*dC*dC*dT*dT*dG*dT) [AS-II-280-20] | 41.79 | 61.81 | 79.14 | 90.56 | 53.94 | 69.42 | 97.14 | 77.51
9 | TCAGAGGGGGCAGAGAATCC (antisense dT*dC*dA*dG*dA*dG*dG*dG*dG*dG*dC*dA*dG*dA*dG*dA*dA*dT*dC*dC) [AS-II-2044-20] | 24.55 | 25.55 | 19.11 | 53.63 | 24.48 | 49.34 | 62.35 | 74.48
10 | ACCCCTCACTCCAGCAGCCT (antisense dA*dC*dC*dC*dC*dT*dC*dA*dC*dT*dC*dC*dA*dG*dC*dA*dG*dC*dC*dT) [AS-II-110-20] | 53.98 | 89.38 | 90.92 | 87.78 | 47.51 | 71.69 | 97.14 | 92.06
